{
  "source": "paper PMC3486420",
  "about": "“In Vitro and In Vivo Characterizations of Chiglitazar, a Newly Identified PPAR Pan-Agonist” (PPAR Research, 2012)",
  "key": {"[1]": {"test_system": "db/db mice", "experiment": "Oral treatment of diabetic db/db mice (glucose, insulin, IPGTT, body and fat pad weight)", "type": "in vivo, mouse", "text": "Male db/db mice (BKS.Cg-m +/+ LEPR^db) in 6-7 weeks were purchased from The Jackson Laboratory (Bar Harbor, ME, USA). Male KKAy and C57BL/6J mice in 8–10 weeks were obtained from the Institute of Animal Science, Chinese Academy of Medical Sciences and Peking Union Medical College (Beijing, China). Animals were randomly sorted into different treatment groups (8–10 per group). […] Plasma glucose levels were examined at various time points by Accu-Chek Advantage II Glucose Strips (Roche Diagnostics, Basel, Switzerland) and measured by Accu-Chek Advantage (Roche Diagnostics). Animals were sacrificed 24 h after the last dosing and abdominal fat pad, liver, and skeletal muscle from KKAy mice and abdominal fat pad from db/db mice were taken for gene expression analysis.\nFor intraperitoneal glucose tolerance test (IPGTT), db/db mice dosed for 14 days were fasted overnight, followed by an intraperitoneal injection of glucose (2 g kg^−1). Blood samples were taken for measurement of plasma glucose before and 30, 60, and 120 min after the glucose load. The area under curves (AUC) was calculated to evaluate the IPGTT results. To determine plasma insulin concentrations, blood samples were taken from db/db mice dosed with different reagents or vehicle for 0, 3, 6, and 9 d, and insulin levels were measured by Insulin ELISA Kit (Roche Diagnostics) following the instructions from the manufacture.\nFigure 2 In vivo effects on blood glucose control and insulin sensitization of chiglitazar. Male db/db (a, c and d) and male KKAy mice (b) were treated with vehicle (Ctrl), rosiglitazone (Ros), or chiglitazar (Chi) at the indicated doses for various days. Plasma glucose (a and b) and insulin (c) levels were measured at the indicated time points. […] Data are expressed as mean ± SE.\nFigure 4 Influence in body and abdominal fat pad weights of chiglitazar. […] Changes in body weight were evaluated at the indicated days (b), and the fat pads were weighed from the scarified animals at day 15 (c). ^# P < 0.05 compared with day 0, and *P < 0.05 compared with Ctrl. n = 8 per group for KKAy, and n = 10 per group for db/db. Data are expressed as mean ± SE."}, "[2]": {"molecular_target": "T1, PPARδ (Homo sapiens, UniProt Q03181)", "T1 construct": "expressed in transfected cells; host or cells: SMMC-7721 or U2OS", "T1 sequence (Q03181 1-441)": "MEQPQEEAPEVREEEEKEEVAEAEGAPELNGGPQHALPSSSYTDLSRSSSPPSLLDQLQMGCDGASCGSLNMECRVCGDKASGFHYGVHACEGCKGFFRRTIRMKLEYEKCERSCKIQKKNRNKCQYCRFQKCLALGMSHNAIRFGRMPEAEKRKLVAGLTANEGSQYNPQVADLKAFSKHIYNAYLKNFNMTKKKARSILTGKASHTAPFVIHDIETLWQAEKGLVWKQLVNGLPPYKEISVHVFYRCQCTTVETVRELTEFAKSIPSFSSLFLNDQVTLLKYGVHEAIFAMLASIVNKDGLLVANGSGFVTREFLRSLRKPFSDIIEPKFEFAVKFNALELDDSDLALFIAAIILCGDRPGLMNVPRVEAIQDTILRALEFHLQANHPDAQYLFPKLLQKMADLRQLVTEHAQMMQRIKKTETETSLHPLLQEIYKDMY", "T1 sequence (P19793 1-462 partner)": "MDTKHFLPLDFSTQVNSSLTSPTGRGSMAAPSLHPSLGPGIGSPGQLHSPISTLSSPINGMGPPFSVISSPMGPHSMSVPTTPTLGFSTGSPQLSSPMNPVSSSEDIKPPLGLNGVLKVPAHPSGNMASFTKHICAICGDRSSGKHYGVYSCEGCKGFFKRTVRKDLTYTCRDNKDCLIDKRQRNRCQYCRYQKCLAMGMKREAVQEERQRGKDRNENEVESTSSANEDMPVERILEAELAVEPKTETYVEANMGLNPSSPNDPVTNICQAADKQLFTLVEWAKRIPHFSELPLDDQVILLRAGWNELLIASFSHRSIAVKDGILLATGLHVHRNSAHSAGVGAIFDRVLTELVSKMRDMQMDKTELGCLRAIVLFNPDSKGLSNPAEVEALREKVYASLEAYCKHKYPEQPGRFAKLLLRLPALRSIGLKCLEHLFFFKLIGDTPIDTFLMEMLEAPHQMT", "experiment": "PPARδ transactivation reporter gene assay in SMMC-7721 cells", "type": "cell-based", "settings": "SMMC-7721 cells"}, "[3]": {"molecular_target": "T2, PPARγ (Homo sapiens, UniProt P37231)", "T2 construct": "expressed in transfected cells; host or cells: SMMC-7721 or U2OS", "T2 sequence (P37231 1-505)": "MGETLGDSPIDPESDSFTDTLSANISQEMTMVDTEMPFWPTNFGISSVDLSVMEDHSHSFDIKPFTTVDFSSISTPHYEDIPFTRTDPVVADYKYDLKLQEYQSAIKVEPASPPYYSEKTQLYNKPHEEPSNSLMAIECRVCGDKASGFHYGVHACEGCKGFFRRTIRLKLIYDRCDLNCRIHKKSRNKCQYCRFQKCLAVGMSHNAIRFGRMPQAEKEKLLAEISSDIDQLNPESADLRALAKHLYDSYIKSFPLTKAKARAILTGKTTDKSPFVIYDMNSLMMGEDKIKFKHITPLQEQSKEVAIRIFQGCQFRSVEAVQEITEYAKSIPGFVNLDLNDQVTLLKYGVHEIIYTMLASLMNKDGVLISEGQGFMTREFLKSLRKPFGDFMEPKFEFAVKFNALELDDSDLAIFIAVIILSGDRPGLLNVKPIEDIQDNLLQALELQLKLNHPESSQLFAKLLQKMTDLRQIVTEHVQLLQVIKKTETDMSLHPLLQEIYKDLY", "T2 sequence (P19793 1-462 partner)": "T1 sequence (P19793 1-462 partner)", "experiment": "PPARγ transactivation reporter gene assay in U2OS cells", "type": "cell-based"}},
  "data": [
    {"smiles": "O=C(c1ccc(F)cc1)c1ccccc1NC(Cc1ccc(OCCn2c3ccccc3c3ccccc32)cc1)C(=O)O", "note": "(stereo not drawn) [Chi, 2-[(2-(4-fluorobenzoyl)phenyl)amino]-3-[4-(2-carbazolylethoxy)-phenyl]-propionic acid]", "values": [
      {"measurement": "Glucose tolerance (IPGTT)", "setting": "[1]; db/db mice, 20 mg kg^−1 oral daily, 14 days", "result": "increased"},
      {"measurement": "Body weight", "setting": "[1]; db/db mice, 5, 10 and 20 mg kg^−1 oral daily, 14 days", "result": "dose-dependent weight gain"},
      {"measurement": "Abdominal fat pad weights", "setting": "[1]; db/db mice, chiglitazar 20 mg kg^−1 vs rosiglitazone 5 mg kg^−1, 14 days", "result": "less increase"},
      {"measurement": "BG (blood glucose) levels", "setting": "[1]; db/db mice, oral daily, 5 to 20 mg kg^−1, 14 days", "result": "significantly lowered"},
      {"measurement": "Plasma insulin concentrations", "setting": "[1]; db/db mice, oral daily, different doses, compared with vehicle control", "result": "markedly decreased"},
      {"measurement": "EC50", "setting": "[2]; 24 h treatment, luciferase reporter, hRXR cotransfected, ia: inactive at 10 μM, read-out: PPARδ EC50", "result": "1700 ± 400", "unit": "nM"},
      {"measurement": "PPARδ % Max", "setting": "[2]; max response compared with 2-Bro at 10 μM", "result": 123, "unit": "%"},
      {"measurement": "EC50", "setting": "[3]; 24 h treatment, luciferase reporter, hRXR cotransfected, ia: inactive at 10 μM", "result": "80 ± 20", "unit": "nM"},
      {"measurement": "PPARγ % Max", "setting": "[3]; max response compared with Ros at 1 μM", "result": 117, "unit": "%"}
    ]}
  ]
}
